In patent US12404241B2 (Celgene Corporation, priority 2018, dated 2025):

Molecular target: T1, AR (Homo sapiens, UniProt P10275)
T1 construct: endogenous in cells; host or cells: VCaP cells
T1 sequence (P10275 1-920): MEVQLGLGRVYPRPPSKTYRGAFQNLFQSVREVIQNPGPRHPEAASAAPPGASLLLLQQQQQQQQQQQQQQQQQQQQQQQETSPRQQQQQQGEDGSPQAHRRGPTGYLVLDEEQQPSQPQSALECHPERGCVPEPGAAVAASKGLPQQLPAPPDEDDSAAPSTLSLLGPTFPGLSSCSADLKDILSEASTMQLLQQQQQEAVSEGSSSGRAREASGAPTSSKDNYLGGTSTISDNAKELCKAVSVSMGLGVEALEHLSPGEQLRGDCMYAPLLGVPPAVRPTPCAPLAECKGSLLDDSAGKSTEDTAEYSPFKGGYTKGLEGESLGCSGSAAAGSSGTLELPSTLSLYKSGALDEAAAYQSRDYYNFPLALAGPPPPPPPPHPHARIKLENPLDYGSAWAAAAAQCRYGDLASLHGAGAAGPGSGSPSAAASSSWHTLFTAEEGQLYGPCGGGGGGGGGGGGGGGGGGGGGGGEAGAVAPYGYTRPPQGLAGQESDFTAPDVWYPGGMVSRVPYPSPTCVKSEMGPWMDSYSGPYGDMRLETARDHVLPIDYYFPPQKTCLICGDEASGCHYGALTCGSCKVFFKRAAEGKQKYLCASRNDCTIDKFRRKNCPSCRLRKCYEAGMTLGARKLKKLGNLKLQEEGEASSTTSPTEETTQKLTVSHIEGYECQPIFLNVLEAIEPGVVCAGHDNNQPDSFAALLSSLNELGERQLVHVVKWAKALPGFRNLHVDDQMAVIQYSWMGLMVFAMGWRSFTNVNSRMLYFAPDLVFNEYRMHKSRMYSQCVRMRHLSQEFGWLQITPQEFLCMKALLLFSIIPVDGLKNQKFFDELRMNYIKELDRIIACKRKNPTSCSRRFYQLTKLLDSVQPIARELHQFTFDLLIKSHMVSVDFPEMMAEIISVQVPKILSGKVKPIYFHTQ
Assay: VCAP AR Degradation Assay
Format: cell-based
Conditions: for Y (AR degradation efficiency, % of DMSO control): class symbols *; for DC50: class symbols A-C, read-out: DC50
Protocol: VCAP AR Degradation Assay. Test compounds were pre-dispensed into a Corning CellBind 96-well clear bottom plate (Cat #3300) using an acoustic dispenser to make a 10-point concentration series at 1:3 dilution for each compound. The final top concentration of each compound was 5 μM. DMSO at a final concentration of 0.1% was used as a control. VCaP cells cultured in DMEM with 8% fetal bovine serum (FBS) were seeded at 50K cells per well in a 200 μL volume into the compound plate and incubated at 37° C. in a CO2 incubator for 24 h. The medium was carefully removed from the cells and the plate was placed on ice. One hundred μL of ice-cold 1x cell lysis buffer from Cell Signaling Technologies (Cat #9803) was added to each well of the cells and the plate was incubated at 4° C. on a shaker for 1 h. Fifteen μL of cell lysate was used for AR ELISA detection using a PathScan Total Sandwich AR ELISA kit (Cell Signaling Technology, Cat #12580). AR levels in compound-treated wells were normalized to that of DMSO control and expressed as percent of control (PoC) (y). A Four Parameter Logistic Model (Sigmoidal Dose-Response Model) was used to determine the compound's DC50, and EC50, using the following equation:
[formula] • A=YMin (lowest AR level normalized to DMSO control in response to compound treatment, as determined by curve fit) • B=YMax (maximum AR level as determined by curve fit) • C=EC50 • D=Hill Slope • x=compound concentration • EC50=the concentration of compound when y=(YMax−YMin)/2 • DC50=the concentration of the compound when y=50% of DMSO control (50% AR degradation) • y=AR protein level normalized to DMSO control
The lowest measured AR level normalized to DMSO control in response to compound treatment, termed Y value, was used to characterize the compound-mediated AR degradation efficiency.

| SMILES | Y (AR degradation efficiency, % of DMSO control) | DC50 [nM] |
| --- | --- | --- |
| C[C@@H]1CN(CCOc2ccc(N3C(=S)N(c4ccc(C#N)c(C(F)(F)F)c4)C(=O)C3(C)C)cc2C2CC2)C[C@H](C)N1CC(=O)Nc1cccc(NC2CCC(=O)NC2=O)c1 (stereo partly drawn) [Example 204, 2-((2S,6R)-4-(2-(4-(3-(4-cyano-3-(trifluoromethyl)phenyl)-5,5-dimethyl-4-oxo-2-thioxoimidazolidin-1-yl)-2-cyclopropylphenoxy)ethyl)-2,6-dimethylpiperazin-1-yl)-N-(3-(2,6-dioxopiperidin-3-ylamino)phenyl)acetamide] | * (0<Y<=25%) | < 100 |
| CC1(C)C(=O)N(c2ccc(C#N)c(C(F)(F)F)c2)C(=S)N1c1ccc(OCCN2CCN(CC(=O)Nc3cc(NC4CCC(=O)NC4=O)ccc3F)CC2)c(CC(F)F)c1 (centres unmarked) [Example 174, 2-(4-(2-(4-(3-(4-cyano-3-(trifluoromethyl)phenyl)-5,5-dimethyl-4-oxo-2-thioxoimidazolidin-1-yl)-2-(2,2-difluoroethyl)phenoxy)ethyl)piperazin-1-yl)-N-(5-(2,6-dioxopiperidin-3-ylamino)-2-fluorophenyl)acetamide] | * (0<Y<=25%) | < 100 |
| CCc1cc(N2C(=S)N(c3ccc(C#N)c(Cl)c3)C(=O)C2(C)C)ccc1OCCN1C[C@@H](C)N(CC(=O)Nc2cccc(NC3CCC(=O)NC3=O)c2)[C@@H](C)C1 (stereo partly drawn) [Example 291, 2-((2S,6R)-4-(2-(4-(3-(3-chloro-4-cyanophenyl)-5,5-dimethyl-4-oxo-2-thioxoimidazolidin-1-yl)-2-ethylphenoxy)ethyl)-2,6-dimethylpiperazin-1-yl)-N-(3-((2,6-dioxopiperidin-3-yl)amino)phenyl)acetamide] | * (0<Y<=25%) | < 100 |
| CCc1cc(N2C(=S)N(c3cnc(C#N)c(C(F)(F)F)c3)C(=O)C23CCC3)ccc1OCCN1C[C@@H](C)N(CC(=O)Nc2cc(NC3CCC(=O)NC3=O)ccc2F)[C@@H](C)C1 (stereo partly drawn) [Example 190, 2-((2S,6R)-4-(2-(4-(7-(6-cyano-5-(trifluoromethyl)pyridin-3-yl)-8-oxo-6-thioxo-5,7-diazaspiro[3.4]octan-5-yl)-2-ethylphenoxy)ethyl)-2,6-dimethylpiperazin-1-yl)-N-(5-(2,6-dioxopiperidin-3-ylamino)-2-fluorophenyl)acetamide] | * (0<Y<=25%) | < 100 |
| CC(C)c1cc(N2C(=S)N(c3ccc(C#N)c(C(F)(F)F)c3)C(=O)C23CCC3)cnc1OCCN1C[C@@H](C)N(CC(=O)Nc2cc(C#N)cc(NC3CCC(=O)NC3=O)c2)C[C@H]1C (stereo partly drawn) [Example 231, 2-((2R,5R)-4-(2-(5-(7-(4-cyano-3-(trifluoromethyl)phenyl)-8-oxo-6-thioxo-5,7-diazaspiro[3.4]octan-5-yl)-3-isopropylpyridin-2-yloxy)ethyl)-2,5-dimethylpiperazin-1-yl)-N-(3-cyano-5-(2,6-dioxopiperidin-3-ylamino)phenyl)acetamide] | * (0<Y<=25%) | 100 to 500 |
| CC(C)c1cc(N2C(=S)N(c3ccc(C#N)c(C(F)(F)F)c3)C(=O)C2(C)C)ccc1OCCN1CCN(C2(C(=O)Nc3cccc(NC4CCC(=O)NC4=O)c3)CC2)CC1 (centres unmarked) [Example 197] | *** (35%<Y<50%) | 100 to 500 |
| CCc1cc(N2C(=S)N(c3cnc(C#N)c(C(F)(F)F)c3)C(=O)C2(C)C)ccc1OCCN1CCN(CC(=O)Nc2cccc(NC3CCC(=O)NC3=O)c2)C2(CC2)C1 (centres unmarked) [Example 99, 2-(7-(2-(4-(3-(6-cyano-5-(trifluoromethyl)pyridin-3-yl)-5,5-dimethyl-4-oxo-2-thioxoimidazolidin-1-yl)-2-ethylphenoxy)ethyl)-4,7-diazaspiro[2.5]octan-4-yl)-N-(3-(2,6-dioxopiperidin-3-ylamino)phenyl)acetamide] | * (0<Y<=25%) | < 100 |
| C[C@@H]1CN(CCOc2ccc(N3C(=S)N(c4ccc(C#N)c(Cl)c4)C(=O)C3(C)C)cc2C(C)(F)F)C[C@H](C)N1CC(=O)Nc1cccc(NC2CCC(=O)NC2=O)c1 (stereo partly drawn) [Example 269, 2-((2S,6R)-4-(2-(4-(3-(3-chloro-4-cyanophenyl)-5,5-dimethyl-4-oxo-2-thioxoimidazolidin-1-yl)-2-(1,1-difluoroethyl)phenoxy)ethyl)-2,6-dimethylpiperazin-1-yl)-N-(3-(2,6-dioxopiperidin-3-ylamino)phenyl)acetamide] | * (0<Y<=25%) | < 100 |
| CCc1cc(N2C(=S)N(c3ccc(C#N)c(C(F)(F)F)c3)C(=O)C2(C)C)cnc1OCCN1CCN(CC(=O)Nc2cccc(NC3CCC(=O)NC3=O)c2)[C@H](C)C1 (stereo partly drawn) [Example 187, 2-((R)-4-(2-(5-(3-(4-cyano-3-(trifluoromethyl)phenyl)-5,5-dimethyl-4-oxo-2-thioxoimidazolidin-1-yl)-3-ethylpyridin-2-yloxy)ethyl)-2-methylpiperazin-1-yl)-N-(3-(2,6-dioxopiperidin-3-ylamino)phenyl)acetamide] | * (0<Y<=25%) | < 100 |
| CCc1cc(N2C(=S)N(c3ccc(C#N)c(C(F)(F)F)c3)C(=O)C2(C)C)ccc1OCCN1CCN(CC(=O)Nc2cccc(NC3CCC(=O)NC3=O)c2)C[C@H]1CO (some centres unmarked) [Example 49] | ** (25%<Y<=35%) | < 100 |
| CCc1cc(N2C(=S)N(c3ccc(C#N)c(C(F)(F)F)c3)C(=O)C2(C)C)ccc1OCCN1CCN(CC(=O)Nc2cccc(NC3CCC(=O)NC3=O)c2)[C@H](CC)C1 (stereo partly drawn) [Example 260, 2-((R)-4-(2-(4-(3-(4-cyano-3-(trifluoromethyl)phenyl)-5,5-dimethyl-4-oxo-2-thioxoimidazolidin-1-yl)-2-ethylphenoxy)ethyl)-2-ethylpiperazin-1-yl)-N-(3-(2,6-dioxopiperidin-3-ylamino)phenyl)acetamide] | * (0<Y<=25%) | 100 to 500 |
| CC1(C)C(=O)N(c2cnc(C#N)c(C(F)(F)F)c2)C(=S)N1c1ccc(OCCN2CCN(CC(=O)Nc3cccc(NC4CCC(=O)NC4=O)c3)[C@H](C(F)(F)F)C2)c(C2CC2)c1 (stereo partly drawn) [Example 233, 2-((S)-4-(2-(4-(3-(6-cyano-5-(trifluoromethyl)pyridin-3-yl)-5,5-dimethyl-4-oxo-2-thioxoimidazolidin-1-yl)-2-cyclopropylphenoxy)ethyl)-2-(trifluoromethyl)piperazin-1-yl)-N-(3-(2,6-dioxopiperidin-3-ylamino)phenyl)acetamide] | * (0<Y<=25%) | < 100 |
| C[C@@H]1CN(CC(=O)Nc2cccc(NC3CCC(=O)NC3=O)c2)[C@H](C)CN1CCOc1ccc(N2C(=S)N(c3cnc(C#N)c(C(F)(F)F)c3)C(=O)C2(C)C)cc1C(C)(F)F (stereo partly drawn) [Example 244, 2-((2R,5R)-4-(2-(4-(3-(6-cyano-5-(trifluoromethyl)pyridin-3-yl)-5,5-dimethyl-4-oxo-2-thioxoimidazolidin-1-yl)-2-(1,1-difluoroethyl)phenoxy)ethyl)-2,5-dimethylpiperazin-1-yl)-N-(3-(2,6-dioxopiperidin-3-ylamino)phenyl)acetamide] | * (0<Y<=25%) | < 100 |
